# Results published in paper PMC7700664, “In Vitro and Ex Vivo Evaluation of Penetratin as a Non-invasive Permeation Enhancer in the Penetration of Salmon Calcitonin through TR146 Buccal Cells and Porcine Buccal Tissues” (Pharmaceuticals, 2020).
# Key:
# TR146 cells = test: FITC-Penetratin and Alexa 647-sCT internalization in TR146 cells (flow cytometry); format: cell-based, human; details: 2 h, FACS
# Protocol: For the internalization of FITC-Penetratin and Alexa 647-sCT, Alexa 647-sCT was synthesized. Alexa-647 and sCT were left at room temperature for 2 h to react, and the reaction was terminated using ammonium chloride. Purification of Alexa 647-sCT was done through dialysis.
# TR146 cells were seeded in a 6-well culture plate and confocal dish at a density of 5.0 × 10^5 cells per well, and incubated for 24 h at 37 °C in 5 % CO2. To determine the concentration at which optimal intracellular uptake of Penetratin occurs, FITC-Penetratin at 2.5, 5, 10, 15, 20, 30, and 40 μM were added and incubated for 2 h.
# To confirm the effect of Penetratin on intracellular uptake of sCT, 1.22, 6.10 and 12.2 μM of FITC-Penetratin were added to 40 μg of Alexa 647-sCT and incubated for 2 h at 37 °C. For the energy-independent internalization of Penetratin, 40 μg of Alexa 647-sCT and 12.2 μM of FITC-Penetratin were added and incubated for 2 h at 4 °C (energy-abolishing condition) and 37 °C (biological condition). After 2 h, imaging study with flow cytometry (BD FACSverse; Becton Dickinson, Heidelberg, Germany) and confocal laser scanning microscopy (LSM 800, Zeiss, Oberkochen, Germany) were performed.
# TR146 cells were treated with a pre-determined amount of FITC-Penetratin and Alexa 647-sCT in a 6-well culture plate. […]
# porcine buccal tissues = test: Ex vivo buccal tissues permeation (Franz diffusion cell); format: in vitro ADME; details: 40 μg sCT; for Kp (permeability coefficient) / Js (flux): porcine buccal epithelium, 37 °C, mean ± SD n = 3; for Kp (permeability coefficient): Franz cell, pH 7.4 PBS, ELISA, Kp = Js/Cd; for Js (flux): Franz diffusion cell, area 2.0 cm^2, receptor 12.5 mL pH 7.4 PBS, 600 rpm, 8 h, sCT ELISA; for ER (enhancement ratio): porcine buccal tissue
# Protocol: Buccal pre-treatment was performed according to the experimental method of Oh et al.. Briefly, porcine buccal tissues were immediately collected after pigs were sacrificed from a local slaughterhouse. Adipose and connective tissues were removed from buccal mucosa using surgical scissors. To obtain buccal epithelium, tissues were put in pH 7.4 PBS at 60 °C for 1 min. They were evaluated in the following in vitro permeation study.
# Buccal permeability of sCT was evaluated using the Franz diffusion cell. The permeation area was 2.0 cm^2, and the volume of receptor media was 12.5 mL. The receptor was filled with pH 7.4 PBS and stirred at 600 rpm at 37 °C. The Franz diffusion cell was equilibrated for 30 min after mounting the buccal epithelium. Forty micrograms of sCT and of 1.22, 6.10 and 12.2 μM of Penetratin, of which molecular ratios were 1:0.1, 1:0.5 and 1:1 in donor part, respectively, were added to the Franz diffusion cell. Half of a milliliter of sample was obtained at different time intervals (1, 2, 4, and 8 h) from the receptor part and analyzed by a sCT ELISA kit (Phoenix Pharmaceuticals, Burlingame, CA, USA).
# (§1) The flux (Js) was calculated using the following Equation (2), where t (h) was permeation time, A( cm^2 ) was permeation area, and Qr (ng) was the permeated amount of sCT, (2) Js=Qr/A·t(ng·cm^−2·h^−1) Kp was calculated with the following Equation (3), (3) Kp=Js/Cd([…]) where Js was the flux from the steady state (ng⋅cm^−2⋅h^−1) and Cd was the initial concentration in the donor chamber (ng⋅cm^−3). Finally, the enhancement ratio (ER) was obtained by dividing the Kp value of each formulation with that of the control.
# TR146 cell layer = test: In vitro cell permeation study (Transwell); format: in vitro ADME, human; set-up: Kp (permeability coefficient): unit not given here; details: 40 μg sCT; for Kp (permeability coefficient) / ER (enhancement ratio): TR146 Transwell; for Kp (permeability coefficient) / Js (flux): apical to basolateral, HBSS-HEPES, 37 °C, mean ± SD n = 3; for Kp (permeability coefficient): ELISA, Kp = Js/Cd; for Js (flux): TR146 layer on 12-well Transwell, 28–30 days culture, sampling 0.5–8 h, sCT ELISA
# Protocol: (§2) TR146 cell was seeded in a 12-well Transwell insert (Corning Inc., Corning, NY, USA) at a density of 5 × 10^4 cells per cm^2, and the medium was changed every 2 days for 28–30 days. The experiment was conducted from apical to basolateral and HBSS-HEPES buffer was used as media. Forty micrograms of sCT and 1.22, 6.10, and 12.2 μM of Penetratin were added to apical chamber and kept at 37 °C. 500 μL of sampling was obtained at 0.5, 1, 2, 4 and 8 h. Transepithelial electrical resistance (TEER) value was measured before and after the experiment. TEER was calculated with the following Equation (1), where Rinsert with cell, Rinsert without cell, and A were insert filter areas. The permeated amount of sCT was analyzed using an sCT ELISA kit (Phoenix Pharmaceuticals, Burlingame, CA, USA):TEER = (Rinsert with cell − Rinsert without cell) × A(1)
# as §1
# TR146 cell layers = test: TEER before and after permeability experiments; format: cell-based, human; details: for TEER Value After: after permeability experiment (8 h, 37 °C); for TEER Value After / TEER Value Before: TR146 cell layers on Transwell; for TEER Recovery: after vs before permeability experiment, TR146 cell layers; for TEER Value Before: before permeability experiment
# Protocol: as §2
# [1] = no reference given for the value; cited from earlier work
# Protocol: Penetratin is one of the most promising CPPs. Penetratin has positively charged amino acids such as lysine and arginine, and hydrophobic amino acids. Various cargoes were delivered by overcoming the barrier of the cell membrane, but the mechanism of CPPs and Cargo delivery through the cell membrane is still unclear. There is a possible explanation. At pH 7.4, where permeation and cell uptake experiments were conducted, sCT with a pI of 10.4 and penetratin have a positive charge, so there is no ionic interaction between penetratin and sCT. Penetratin and sCT form a hydrophobic interactio ...
# [2] = Penetratin 1.22 μM, Kp of formulation divided by Kp of control
# [3] = Penetratin 6.10 μM, Kp of formulation divided by Kp of control
substance,measurement,setting,value
"FITC-Penetratin: FITC labeled Penetratin, purchased from Peptron",internalization of FITC-Penetratin at 4 °C,"TR146 cells; 12.2 μM FITC-Penetratin + 40 μg Alexa 647-sCT, 4 °C",confirmed
same,relative MFI of FITC-Penetratin (internalization) versus concentration,"TR146 cells; FITC-Penetratin 2.5–40 μM, 37 °C, n = 3","increased steeply from 2.5 to 15 μM, but increased more gradually from 15 to 40 μM"
Salmon calcitonin [sCT],Kp (permeability coefficient),porcine buccal tissues; Penetratin 0 μM (control),0.005 ± 0.000 cm·h^−2 × 10^−3
same,Js (flux),porcine buccal tissues; Penetratin 0 μM (control),0.208 ± 0.018 ng·cm^−2·h^−1
same,Js (flux),porcine buccal tissues; Penetratin 1.22 μM (sCT:Penetratin 1:0.1),1.973 ± 0.660 ng·cm^−2·h^−1
same,Kp (permeability coefficient),porcine buccal tissues; Penetratin 1.22 μM,0.049 ± 0.017 cm·h^−2 × 10^−3
same,ER (enhancement ratio),porcine buccal tissues; [2],9.5
same,Js (flux),porcine buccal tissues; Penetratin 6.10 μM (sCT:Penetratin 1:0.5),6.707 ± 0.832 ng·cm^−2·h^−1
same,Kp (permeability coefficient),porcine buccal tissues; Penetratin 6.10 μM,0.168 ± 0.021 cm·h^−2 × 10^−3
same,ER (enhancement ratio),porcine buccal tissues; [3],32.2
same,Js (flux),porcine buccal tissues; Penetratin 12.2 μM (sCT:Penetratin 1:1),19.507 ± 1.794 ng·cm^−2·h^−1
same,Kp (permeability coefficient),porcine buccal tissues; Penetratin 12.2 μM,0.488 ± 0.045 cm·h^−2 × 10^−3
same,ER (enhancement ratio),"porcine buccal tissues; Penetratin 12.2 μM, Kp of formulation divided by Kp of control (text: fold increase of flux / permeated amount)",93.7
same,Kp (permeability coefficient),TR146 cell layer; Penetratin 0 μM (control),0.201 ± 0.007
same,Js (flux),TR146 cell layer; Penetratin 0 μM (control),16.091 ± 0.560 ng·cm^−2·h^−1
same,Kp (permeability coefficient),TR146 cell layer; Penetratin 1.22 μM,0.275 ± 0.041
same,ER (enhancement ratio),TR146 cell layer; [2],1.4
same,Js (flux),TR146 cell layer; Penetratin 1.22 μM,22.004 ± 3.247 ng·cm^−2·h^−1
same,Kp (permeability coefficient),TR146 cell layer; Penetratin 6.10 μM,0.676 ± 0.063
same,ER (enhancement ratio),TR146 cell layer; [3],3.4
same,Js (flux),TR146 cell layer; Penetratin 6.10 μM,54.075 ± 5.053 ng·cm^−2·h^−1
same,Kp (permeability coefficient),TR146 cell layer; Penetratin 12.2 μM,1.115 ± 0.140
same,ER (enhancement ratio),"TR146 cell layer; Penetratin 12.2 μM, Kp of formulation divided by Kp of control (text: fold increase of Js/flux)",5.5
same,Js (flux),TR146 cell layer; Penetratin 12.2 μM,89.190 ± 11.227 ng·cm^−2·h^−1
same,TEER Value After,TR146 cell layers; 40 μg sCT + Penetratin 0 μM,60.48 ± 5.88 Ω·cm^2
same,TEER Value After,TR146 cell layers; 40 μg sCT + Penetratin 1.22 μM,59.73 ± 2.94 Ω·cm^2
same,TEER Value After,TR146 cell layers; 40 μg sCT + Penetratin 6.10 μM,60.11 ± 6.00 Ω·cm^2
same,TEER Value After,TR146 cell layers; 40 μg sCT + Penetratin 12.2 μM,61.60 ± 6.62 Ω·cm^2
same,TEER Recovery,TR146 cell layers; 40 μg sCT + Penetratin 0 μM,96.31 ± 1.78%
same,TEER Recovery,TR146 cell layers; 40 μg sCT + Penetratin 1.22 μM,94.21 ± 1.90%
same,TEER Recovery,TR146 cell layers; 40 μg sCT + Penetratin 6.10 μM,98.17 ± 2.64%
same,TEER Recovery,TR146 cell layers; 40 μg sCT + Penetratin 12.2 μM,96.52 ± 4.97%
same,TEER Value Before,TR146 cell layers; group 40 μg sCT + Penetratin 0 μM,62.72 ± 5.20 Ω·cm^2
same,TEER Value Before,TR146 cell layers; group 40 μg sCT + Penetratin 1.22 μM,63.47 ± 3.99 Ω·cm^2
same,TEER Value Before,TR146 cell layers; group 40 μg sCT + Penetratin 6.10 μM,61.23 ± 6.00 Ω·cm^2
same,TEER Value Before,TR146 cell layers; group 40 μg sCT + Penetratin 12.2 μM,63.84 ± 6.42 Ω·cm^2
same,pI,[1],10.4
